Test results: US5994349A, “3-carboalkoxy-2, 3-dihydro-1H-phenothiazin-4[10H]-one derivatives” (priority 1997, dated 1999)
Like-named read-outs stand apart in the source and are kept apart here.

How the values were obtained:
[1] = stability in refluxing DMSO; type: physicochemical; conditions: refluxing DMSO for periods up to 40 min, forming 4m
Method: Without wishing to be held to any particular theory, when experimental conditions for the final step are identical for each ester, (i.e., 40 min reflux in DMSO), it is believed that the ter-butyl compound 4c (X=H) undergoes thermal decomposition to give 2,3-dihydro-1H-phenothiazin-4[10H]-one, 4d (X=H). Thermal decomposition of the desired phenothiazine 4c (X=H) to butylene and the b-keto acid (4, R=X=H) is suspected, followed by decarboxylation of the latter compound to 4d (X=H). This is substantiated by the formation of the 4c series by employing shorter reflux times in DMSO. […] Friary and coworkers have shown that 7c (R=C(CH3)3) is readily decarboxylated under acid-catalyzed conditions to form 7d (see Scheme III below). Friary, R. J.; Gilligan, J. M.; Szajewski, R. P.; Falci, K. J.; Franck, R. W. Heterocyclic syntheses via the intramolecular acylation of enamines derived from animo acids. J. Org. Chem. 1973, 38, 3487-3490. [drawing 7]

[2] = system: maximal electroshock seizures; experiment: maximal electroshock (MES) test, Phase I, mice ip; type: in vivo, male Carworth Farms No. 1 (CF1) mice; conditions: Mus musculus
Method: (§1) Initial evaluations for anticonvulsant activity include phases I, VIA and VIB test procedures. These tests are performed intraperitoneally in male Carworth Farms No. 1 (CF1) mice, weighing 18-25 g (Phase I) or orally in male Sprague-Dawley rats, weighing 100-150 g (Phases VIA and VIB). The evaluation is based on three tests: maximal electroshock (MES), subcutaneous (scMet), and the rotorod test for neurological toxicity (Tox). (a) Anticonvulsant Screening Project, Antiepileptic Drug Development Program, National Institutes of Health, DHEW Publ (NIH)(U.S.) 1978, NIH 78-1093. (b) Porter, R. J.; Cereghino, J. J.; Gladding, G. D.; Hessie, B. J.; Kupferberg, H. J.; Scoville, B.; White, B. G. Antiepileptic drug development program. Cleveland Clin. Q. 1984, 51, 293-305. (c) Krall, R. L.; Penry, J. K.; White, B. G.; Kupferberg, H. J.; Swinyard, E. A. Antiepileptic drug development: II. Anticonvulsant drug screening. Epilepsia 1978, 19, 400-428. In the MES test, maximal electroshock seizures are elicited with a 60- cycle alternating current of 50 mA intensity (5-7 times that necessary to elicit minimal electroshock seizures) delivered via corneal electrodes for 0.2 seconds. A drop of 0.9% saline is placed on the eye prior to application of the electrodes in order to […]. Abolition of the hind limb tonic extension component of the seizure is defined as protection and results are expressed as the number of animals protected/the number of animals tested.
In phase I, compounds are suspended in 0.5% aqueous methylcellulose and are administered intraperitoneally at three dosage levels (30, 100, and 300 mg/kg) with anticonvulsant activity and motor impairment noted 30 min and 4 h (and in some cases 2 h and 6 h) after administration.

[3] = system: neurotoxicity (rotorod); experiment: rotorod test for neurological toxicity (Tox), Phase I, mice ip; type: in vivo, male Carworth Farms No. 1 (CF1) mice
Method: as §1
The rotorod test is used to evaluate neurotoxicity. The animal is placed on a 1 inch diameter knurled plastic rod rotating at 6 rpm. Normal mice can remain on a rod rotating at this speed indefinitely. […]

[4] = system: pentylenetetrazol seizures; experiment: subcutaneous pentylenetetrazol (scMet) test, Phase I, mice ip; type: in vivo, male Carworth Farms No. 1 (CF1) mice; conditions: Mus musculus, mice ip
Method: as §1
In the sc MET test, eighty-five mg/kg of pentylenetetrazol, which induces seizures in more than 95% of mice, is administered as a 0.5% solution subcutaneously in the posterior midline. The animal is observed for 30 minutes. Failure to observe even a threshold seizure (a single episode of clonic spasms of at least 5 seconds duration) is defined as protection and the results are expressed as the number of animals protected/ the number of animals tested. […]

[5] = system: maximal electroshock seizures; experiment: maximal electroshock (MES) test, oral rat (Phase VIA/VIB); type: in vivo, male Sprague-Dawley rats
Method: as §1
(§2) To differentiate the results between different rodent species, 4b (X=H), as well as 4a (R=H), 4e (R=Cl), 4f (R=Cl) and 4i (R=CH3) are subsequently evaluated for oral (po) activity in the rat (Phase VIA or VIB).

[6] = system: neurotoxicity (rotorod); experiment: rotorod toxicity, oral rat (Phase VIA/VIB); type: in vivo, male Sprague-Dawley rats; conditions: rat oral, 30 mg/kg
Method: as §1
(§3) The rotorod test is used to evaluate neurotoxicity. The animal is placed on a 1 inch diameter knurled plastic rod rotating at 6 rpm. Normal mice can remain on a rod rotating at this speed indefinitely.
as §2

[7] = rotorod toxicity, oral rat (Phase VIA/VIB); type: in vivo, male Sprague-Dawley rats; conditions: rat, in vivo, po
Method: as §1, §3, §2

[8] = 4 h, read-out: MES 4 h (converted)
[9] = 0.5 h, 30 min, read-out: MES 30 min
[10] = 0.5 h, 30 min, read-out: MES 30 min (converted)
[11] = 0.5 h, 30 min, read-out: scMet 30 min

Compound | responders at 30 mg/kg ([2]; 4 h, read-out: MES 4 h) [%] | responders at 100 mg/kg [2, 8] [%] | responders at 10 mg/kg [2, 9] [%] | responders at 30 mg/kg [2, 10] [%] | responders at 100 mg/kg [2, 10] [%] | Tox 30 min ([3]; 10 mg/kg) | Tox 30 min ([3]; 30 mg/kg) | Tox 4 h ([3]; 30 mg/kg) | Tox 30 min ([3]; 100 mg/kg) | Tox 4 h ([3]; 100 mg/kg) | responders at 30 mg/kg [4, 11] [%] | responders at 100 mg/kg [4, 11] [%] | responders at 30 mg/kg ([4]; 4 h, read-out: scMet 4 h) [%] | responders at 100 mg/kg ([4]; 4 h, read-out: scMet 4 h) [%] | responders at 30 mg/kg ([5]; 0.25 h) [%] | responders at 30 mg/kg ([5]; 1.00 h) [%] | responders at 30 mg/kg ([5]; 2.00 h) [%] | responders at 30 mg/kg ([5]; 4.00 h) [%] | responders at 30 mg/kg ([5]; 0.5 h, 0.50 h) [%] | Tox ([6]; 0.25 h) | further results
C[C@@H]1CC2=C(Sc3cc(Br)ccc3N2)C(=O)[C@H]1C(=O)OC(C)(C)C (relative stereo) [Compound 4l, 7-Bromo-3-carbo-ter-butoxy-2-methyl-2,3-dihydro-1H-phenothiazin-4[10H]-one] | 0 | 66.7 | 0 | 100 | 100 | 0/4 | 0/4 | 0/2 | 0/8 | 0/4 | 0 | 0 | 0 | 0 | 50 | 100 | 100 | 100 | 50 | 0/4 | stability in refluxing DMSO [1]: lability of the 3-carbo-ter butoxy substituent; responders at 300 mg/kg [2, 8]: 100%; responders at 3 mg/kg ([2]; 0.5 h, 3 mg/kg, 30 min): 0%; responders at 300 mg/kg [2, 10]: 100%; Tox 30 min ([3]; 300 mg/kg): 0/4; Tox 4 h ([3]; 300 mg/kg): 0/2; responders at 300 mg/kg ([4]; 0.5 h, 30 min, read-out: scMet 30 min (converted)): 33.3%; responders at 300 mg/kg ([4]; 4 h, read-out: scMet 4 h (converted)): 0%; Tox ([6]; 0.50 h): 0/4; Tox ([6]; 1.00 h): 0/4; Tox ([6]; 2.00 h): 0/4; Tox ([6]; 4.00 h): 0/4
CCOC(=O)[C@@H]1C(=O)C2=C(C[C@H]1C)Nc1ccccc1S2 (relative stereo) [Compound 4b, 3-Carbethoxy-2-methyl-2,3-dihydro-1H-phenothiazin-4[10H] -one] | 0 | 0 | 0 | 33.3 | 100 | 0/4 | 0/8 | 0/4 | 0/4 | 0/2 | 0 | 0 | 0 | 0 | 75 | 50 | 0 | 100 | 25 | 0/4 | responders at 10 mg/kg ([2]; 4 h, read-out: MES 4 h): 0%; Tox 4 h ([3]; 10 mg/kg): 0/2; responders at 10 mg/kg [4, 11]: 0%; responders at 10 mg/kg ([4]; 4 h, read-out: scMet 4 h): 0%; ED50 ([5]; MES, Phase VIB, repeat test, read-out: ED50 (repeat test)): 47.2 mg/kg; protective index (TD50/ED50) ([5]; repeat test (ED50 47.2, TD50 >500 mg/kg)): > 10.6; Tox ([6]; 0.50 h): 1/2; Tox ([6]; 1.00 h): 0/4; Tox ([6]; 2.00 h): 0/4; Tox ([6]; 4.00 h): 0/4; TD50 [7]: > 500 mg/kg
